# Reference: PubChem BioAssay (NCI)
# Where “and” joins values, the source holds several entries; their conditions need not be identical. Equal values may be shown once.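 Each compound was tested at five concentrations against cells in 96-well plates for 48 hours. GI50 marks 50% less growth. TGI marks complete inhibition of growth.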
# What was measured:
# Assay in all cases: NCI anticancer screen, dose series, 48 h
# M14 melanoma = tested on: M14 melanoma
# HCC-2998 colon = tested on: HCC-2998 colon
# NCI-H460 lung = tested on: NCI-H460 lung
# SNB-75 CNS = tested on: SNB-75 CNS
# HCT-15 colon = tested on: HCT-15 colon
# NCI-H23 lung = tested on: NCI-H23 lung
# SF-295 CNS = tested on: SF-295 CNS
# K-562 leukemia = tested on: K-562 leukemia
# OVCAR-5 ovarian = tested on: OVCAR-5 ovarian
# ACHN renal = tested on: ACHN renal
SMILES,GI50 (M14 melanoma),TGI (M14 melanoma),GI50 (HCC-2998 colon),TGI (HCC-2998 colon),GI50 (NCI-H460 lung),TGI (NCI-H460 lung),GI50 (SNB-75 CNS),TGI (SNB-75 CNS),GI50 (HCT-15 colon),TGI (HCT-15 colon) [µM],GI50 (NCI-H23 lung),TGI (NCI-H23 lung),GI50 (SF-295 CNS),TGI (SF-295 CNS) [µM],GI50 (K-562 leukemia),TGI (K-562 leukemia) [µM],GI50 (OVCAR-5 ovarian),TGI (OVCAR-5 ovarian) [µM],GI50 (ACHN renal),TGI (ACHN renal)
Cc1ccc(NC(C(=O)c2ccccc2)c2ccccc2)cc1 (stereo not drawn),4 µM,33.4 µM,4.52 µM,> 100 µM,2.8 µM,11.8 µM,3.58 µM,20.3 µM,27.7 µM,> 100,3.5 µM,> 100 µM,2.38 µM,8.71,3.07 µM,> 100,21.6 µM,> 100,7.94 µM,> 100 µM
O=C(NCCSSCCNC(=O)/C(Cc1ccc(O)c(Br)c1)=N/O)/C(Cc1ccc(O)c(Br)c1)=N/O,–,7.22 µM,–,8.11 µM,–,> 20.6 µM,–,> 13.6 µM,–,14.4,–,13.1 µM,–,4.29,–,> 50,–,13.5,–,5.77 µM
O=C1C=CC(=O)c2c1cc1ccccc1c2O,–,26.5 µM,–,32.8 µM,–,41.3 µM,–,33.2 µM,–,13.3,–,27.6 µM,–,31.6,–,4.85,–,32.5,–,8.26 µM
Cc1ccc(C2NC(=S)N3C(c4ccc(C)cc4)NC(=S)N23)cc1 (stereo not drawn),3.01 µM,11.2 µM,4.51 µM,17.4 µM,3.82 µM,13.1 µM,2.87 µM,12.1 µM,3.7 µM,15.3,5.29 µM,17.9 µM,2.92 µM,11.8,1.01 µM,12,14.7 µM,28.2,10.1 µM,21.7 µM
Cc1ccc(-n2nnc3c(sc4ccccc43)c2=O)cc1,> 100 µM,> 100 µM,68.7 µM,> 100 µM,4.19 µM,> 100 µM,3.08 µM,16.3 µM,> 100 µM,> 100,42.8 µM,> 100 µM,3.03 µM,14.5,> 100 µM,> 100,> 100 µM,> 100,4.17 µM,> 100 µM
O=C(NC1CCNCC1)c1[nH]ncc1NC(=O)c1c(Cl)cccc1Cl,1.25 µM and 0.792 µM,7.06 µM and 6.17 µM,0.396 µM and 0.328 µM,12 µM and > 6.08 µM,0.338 µM and 0.381 µM,> 45.6 µM,0.249 µM and 0.218 µM,0.766 µM and 0.674 µM,9.83 µM and 9.93 µM,> 100,1.03 µM and 0.393 µM,9.87 µM and 3.23 µM,1.13 µM and 1.01 µM,> 51.8,0.476 µM and 0.403 µM,> 100,0.348 µM and 0.282 µM,> 100,2.95 µM and 3.03 µM,> 100 µM
O=Cc1c[nH]c2ccc(-c3csc4ccccc34)cc12,3.19 µM,> 100 µM,15.5 µM,> 100 µM,3.46 µM,> 100 µM,1.25 µM,5.88 µM,2.98 µM,> 100,18.2 µM,> 100 µM,2.64 µM,13.1,1.69 µM,> 100,88.1 µM,> 100,5.11 µM,> 100 µM
CCOc1ccc(/C=N\N2C(=O)c3ccccc3C2=O)cc1,–,> 100 µM,–,> 100 µM,–,> 100 µM,–,> 100 µM,–,> 100,–,> 100 µM,–,> 100,–,> 100,–,> 100,–,> 100 µM
CC[C@@]1(O)C(=O)OCc2c1cc1n(c2=O)Cc2cc3c(Cl)c4c(cc3nc2-1)OCO4,< 0.001 µM,4.02 µM,0.149 µM and 0.235 µM,6.42 µM,< 0.001 µM,0.279 µM and 0.382 µM,0.00288 µM,> 100 µM,0.215 µM and 0.178 µM,> 100,< 0.001 µM,–,< 0.001 µM,–,< 0.001 µM,> 100,0.985 µM and 0.193 µM,1.69,< 0.001 µM,0.00185 µM and 0.0109 µM
C/C(=C\CCc1ccsc1)CC/C=C(\C)CCCN1CCN(CCO)CC1,2.05 µM,4.2 µM,1.97 µM,3.63 µM,1.96 µM,3.79 µM,2.45 µM,8.51 µM,2.42 µM,6.31,3.37 µM,13.4 µM,2.29 µM,5.64,1.61 µM,4.48,4.04 µM,17.6,4.67 µM,17.4 µM
O=c1[nH]cc(CO)c(=O)[nH]1,> 100 µM,> 100 µM,> 100 µM,> 100 µM,> 100 µM,> 100 µM,> 100 µM,> 100 µM,> 100 µM,> 100,> 100 µM,> 100 µM,> 100 µM,> 100,> 100 µM,> 100,> 100 µM,> 100,> 100 µM,> 100 µM
CC(=O)Nc1c(I)c(C(=O)O)c(I)c(N(C)C(C)=O)c1I,> 100 µM,> 100 µM,> 100 µM,> 100 µM,> 100 µM,> 100 µM,> 100 µM,> 100 µM,> 100 µM,> 100,> 100 µM,> 100 µM,> 100 µM,> 100,> 100 µM,> 100,> 100 µM,> 100,> 100 µM,> 100 µM
C=C(CS(=O)(=O)c1ccccc1)C(=O)OCC,–,24.2 µM,–,35.1 µM,–,35.4 µM,–,32 µM,–,35,–,37.2 µM,–,32,–,35,–,34.8,–,29.5 µM
COc1ccc2oc(-c3cc4cc(OC)ccc4o3)cc2c1,–,> 100 µM,–,> 100 µM,–,> 100 µM,–,> 100 µM,–,> 100,–,> 100 µM,–,> 100,–,> 100,–,> 100,–,> 100 µM
Cc1cc(N2CCN(C)CC2)nc(N(CCNc2ccnc3cc(Cl)ccc23)Cc2ccco2)n1,1.78 µM,3.3 µM,2.65 µM,11.1 µM,3.52 µM,11.8 µM,4.1 µM,19.6 µM,2.69 µM,10.9,6.26 µM,21.4 µM,1.8 µM,3.79,1.59 µM,4.78,5.89 µM,19.4,5.08 µM,17.5 µM
